Measured values reported in patent US9901617B2, “Cell permeable inhibitors of the scaffold protein plenty of SH3 domains (POSH) or Sh3Rfl” (The Curators of the University of Missouri, priority 2013, dated 2018).
No end group written: not given here.

Experiments:
POSH/JIP-1 complex = POSH/JIP-1 complex (Mus musculus, UniProt Q9WVI9)
Method: To identify a role for POSH in TCR-mediated JNK activation, we established its ability to bind components of the JNK signaling cascade in CD8+ T cells. For this, OT-1 TCR transgenic blasts (CTL) were re-stimulated with OVA-Tetramer (Tet)/α-CD28 and subjected to IP with antibodies against Rac1. Co-immunoprecipitation (Co-IP) of components of the JNK signaling pathway was assessed by immunoblot. […] To circumvent this problem we performed Co-IP analyses by flow cytometry (IP-FCM) using α-Rac1, α-POSH and α-JIP-1 antibodies covalently linked to latex beads. The beads were incubated with the lysates washed and probed with antibodies against the Co-IP target. The levels of associated molecules (secondary analyte/Co-IP target) were quantified relative to IP target (primary analyte/loading control). Specificity was determined by comparison to both isotype and negative control antibodies (FIG. 5 and FIG. 6). […] For IP-FCM quantification controls and Tat-POSH inhibitor specificity controls, OT-I T cells were stimulated with OVA-Tet for 24 hours. Cells were then lysed and subjected to IP-FCM using α-Rac-1, α-POSH or α-JIP-1 beads (FIG. 6A).
Cells were then lysed and subjected to IP-FCM using α-JIP-1 or α-Rac1 beads and the relative levels of POSH or JIP-1 were determined.

T cells = conditions: across a large range of concentrations
CD8+ T cells = conditions: data not shown

POSH/JIP-1 complex, sequence (Q9WVI9 whole entry): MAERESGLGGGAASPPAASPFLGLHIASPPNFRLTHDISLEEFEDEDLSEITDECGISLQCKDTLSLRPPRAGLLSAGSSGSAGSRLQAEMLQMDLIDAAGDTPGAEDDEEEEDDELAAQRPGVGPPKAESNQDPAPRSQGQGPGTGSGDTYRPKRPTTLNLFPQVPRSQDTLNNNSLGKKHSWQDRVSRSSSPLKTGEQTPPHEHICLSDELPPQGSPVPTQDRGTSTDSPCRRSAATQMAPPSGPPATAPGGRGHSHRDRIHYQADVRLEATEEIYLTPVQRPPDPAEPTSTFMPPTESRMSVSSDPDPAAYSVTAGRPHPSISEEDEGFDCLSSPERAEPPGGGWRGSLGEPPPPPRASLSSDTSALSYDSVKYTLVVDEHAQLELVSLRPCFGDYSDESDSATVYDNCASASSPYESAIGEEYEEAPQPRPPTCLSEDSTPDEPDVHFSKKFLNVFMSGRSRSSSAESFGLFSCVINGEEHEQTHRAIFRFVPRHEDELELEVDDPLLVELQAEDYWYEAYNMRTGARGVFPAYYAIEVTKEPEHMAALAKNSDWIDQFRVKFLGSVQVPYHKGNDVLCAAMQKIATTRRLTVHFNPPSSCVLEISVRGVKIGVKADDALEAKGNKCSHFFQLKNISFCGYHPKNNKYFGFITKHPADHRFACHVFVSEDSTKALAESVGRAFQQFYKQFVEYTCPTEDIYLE
POSH/JIP-1 complex, sequence (Q8CE90 whole entry partner): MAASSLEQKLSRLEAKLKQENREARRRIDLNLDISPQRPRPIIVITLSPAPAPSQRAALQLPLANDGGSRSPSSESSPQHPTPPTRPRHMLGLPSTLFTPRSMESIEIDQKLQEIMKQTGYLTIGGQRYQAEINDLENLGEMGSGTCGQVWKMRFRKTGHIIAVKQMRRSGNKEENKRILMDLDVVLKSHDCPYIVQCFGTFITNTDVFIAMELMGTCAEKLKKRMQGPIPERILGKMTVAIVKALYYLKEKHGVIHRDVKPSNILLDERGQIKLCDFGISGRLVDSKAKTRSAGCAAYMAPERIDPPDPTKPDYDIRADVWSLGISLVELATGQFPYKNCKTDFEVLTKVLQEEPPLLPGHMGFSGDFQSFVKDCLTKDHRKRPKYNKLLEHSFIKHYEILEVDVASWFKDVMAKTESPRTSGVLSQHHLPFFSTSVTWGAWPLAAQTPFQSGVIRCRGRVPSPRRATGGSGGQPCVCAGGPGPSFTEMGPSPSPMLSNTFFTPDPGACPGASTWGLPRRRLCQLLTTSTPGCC
POSH/JIP-1 complex, sequence (Q91Y86 whole entry partner): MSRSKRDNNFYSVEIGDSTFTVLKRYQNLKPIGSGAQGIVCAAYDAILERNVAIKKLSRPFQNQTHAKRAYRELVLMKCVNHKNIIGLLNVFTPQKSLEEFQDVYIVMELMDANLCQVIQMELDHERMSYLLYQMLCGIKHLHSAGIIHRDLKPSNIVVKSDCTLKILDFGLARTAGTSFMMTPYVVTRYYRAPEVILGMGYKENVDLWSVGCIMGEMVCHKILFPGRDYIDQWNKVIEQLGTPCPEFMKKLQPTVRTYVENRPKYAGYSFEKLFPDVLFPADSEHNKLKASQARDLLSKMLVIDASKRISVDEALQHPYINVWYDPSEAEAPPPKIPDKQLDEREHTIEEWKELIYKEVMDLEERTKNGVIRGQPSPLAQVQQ

GRKKRRQRRRPPRKEDELELRKGEMFLVFER [Tat-POSH SH3.3]
POSH/JIP-1 complexes disrupted (POSH/JIP-1 complex): approximately 30%
toxicity to T cells (T cells): non-toxic
reduction in in vitro cytotoxicity (CD8+ T cells): 10-15%
effect on normal cells (normal thymocytes): not affected
